# How the values were obtained:
# Mus musculus [1] = assay: Analgesic activity in Mus musculus Swiss albino (mouse) assessed as protection against acetic acid-induced writhing response at 20 mg/kg, po administered 30 min prior to acetic acid challenge measured at 2 hr relative to control; format: functional
# Mus musculus [2] = assay: Analgesic activity in Mus musculus Swiss albino (mouse) assessed as protection against acetic acid-induced writhing response at 20 mg/kg, po administered 30 min prior to acetic acid challenge measured at 1 hr relative to control; format: functional
# Mus musculus [3] = assay: Analgesic activity in Mus musculus Swiss albino (mouse) assessed as protection against acetic acid-induced writhing response at 20 mg/kg, po administered 30 min prior to acetic acid challenge measured at 0.5 hr relative to control; format: functional
# Mus musculus [4] = assay: Ulcerogenic activity in Mus musculus Swiss albino (mouse) stomach assessed as decrease in ulcer spots at 60 mg/kg, po after 17 hr by hematoxylin-eosin staining relative to vehicle-treated control; format: toxicity, organism-based; set-up: dose 60 mg/kg, route oral; conditions: in vivo
smiles,measurement,setting,value
O=c1oc2ccc(Br)cc2cc1-c1cc(-c2cccc(Cl)c2)nc(NCN2CCOCC2)n1,Activity,Mus musculus [1],40.71%
same,Activity,Mus musculus [2],62.3%
same,Activity,Mus musculus [3],69.95%
COc1ccccc1-c1cc(-c2cc3cc(Br)ccc3oc2=O)nc(NCN2CCCCC2)n1,Activity,Mus musculus [1],33.5%
same,Activity,Mus musculus [2],65.44%
same,Activity,Mus musculus [3],77.72%
O=c1oc2ccc(Br)cc2cc1-c1cc(-c2ccc(Br)cc2)nc(NCN2CCCCC2)n1,Activity,Mus musculus [1],32.47%
same,Activity,Mus musculus [2],41.88%
same,Activity,Mus musculus [3],49.74%
O=C([O-])Cc1ccccc1Nc1c(Cl)cccc1Cl.[Na+] [DICLOFENAC SODIUM],Activity,Mus musculus [1],84.53%
same,Activity,Mus musculus [2],94.25%
same,Activity,Mus musculus [3],95.87%
O=c1oc2ccc(Br)cc2cc1-c1cc(-c2ccc(Cl)cc2Cl)nc(NCN2CCOCC2)n1,Activity,Mus musculus [4],Non-toxic
same,Activity,Mus musculus [1],69.6%
same,Activity,Mus musculus [2],85.36%
same,Activity,Mus musculus [3],95.34%
O=c1oc2ccc(Br)cc2cc1-c1cc(-c2cccc(Br)c2)nc(NCN2CCOCC2)n1,Activity,Mus musculus [1],47.42%
same,Activity,Mus musculus [2],45.55%
same,Activity,Mus musculus [3],52.33%
O=c1oc2ccc(Br)cc2cc1-c1cc(-c2ccc(Cl)cc2)nc(NCN2CCOCC2)n1,Activity,Mus musculus [1],55.68%
same,Activity,Mus musculus [2],89.54%
same,Activity,Mus musculus [3],98.45%
O=c1oc2ccc(Br)cc2cc1-c1cc(-c2c(Cl)cccc2Cl)nc(NCN2CCCCC2)n1,Activity,Mus musculus [1],15.47%
same,Activity,Mus musculus [2],18.32%
same,Activity,Mus musculus [3],26.43%
O=c1oc2ccc(Br)cc2cc1-c1cc(-c2ccc(Cl)cc2)nc(NCN2CCCCC2)n1,Activity,Mus musculus [1],61.86%
same,Activity,Mus musculus [2],77.47%
same,Activity,Mus musculus [3],83.94%
COc1ccccc1-c1cc(-c2cc3cc(Br)ccc3oc2=O)nc(NCN2CCOCC2)n1,Activity,Mus musculus [1],37.61%
same,Activity,Mus musculus [2],36.13%
same,Activity,Mus musculus [3],41.97%
O=c1oc2ccc(Br)cc2cc1-c1cc(-c2cccc(Cl)c2)nc(NCN2CCCCC2)n1,Activity,Mus musculus [1],51.53%
same,Activity,Mus musculus [2],83.25%
same,Activity,Mus musculus [3],81.87%
O=c1oc2ccc(Br)cc2cc1-c1cc(-c2ccc(Br)cc2)nc(NCN2CCOCC2)n1,Activity,Mus musculus [1],46.89%
same,Activity,Mus musculus [2],51.3%
same,Activity,Mus musculus [3],61.66%
O=c1oc2ccc(Br)cc2cc1-c1cc(-c2ccc(Cl)cc2Cl)nc(NCN2CCCCC2)n1,Activity,Mus musculus [1],38.14%
same,Activity,Mus musculus [2],69.12%
same,Activity,Mus musculus [3],83.94%
COc1cccc(-c2cc(-c3cc4cc(Br)ccc4oc3=O)nc(NCN3CCOCC3)n2)c1,Activity,Mus musculus [1],47.42%
same,Activity,Mus musculus [2],53.41%
same,Activity,Mus musculus [3],60.62%
O=c1oc2ccc(Br)cc2cc1-c1cc(-c2ccccc2Br)nc(NCN2CCCCC2)n1,Activity,Mus musculus [1],15.47%
same,Activity,Mus musculus [2],40.31%
same,Activity,Mus musculus [3],55.96%
COc1cccc(-c2cc(-c3cc4cc(Br)ccc4oc3=O)nc(NCN3CCCCC3)n2)c1,Activity,Mus musculus [1],35.05%
same,Activity,Mus musculus [2],63.87%
same,Activity,Mus musculus [3],74.09%
O=c1oc2ccc(Br)cc2cc1-c1cc(-c2ccccc2Br)nc(NCN2CCOCC2)n1,Activity,Mus musculus [1],47.94%
same,Activity,Mus musculus [2],50.27%
same,Activity,Mus musculus [3],59.59%
O=c1oc2ccc(Br)cc2cc1-c1cc(-c2ccccc2Cl)nc(NCN2CCOCC2)n1,Activity,Mus musculus [1],64.43%
same,Activity,Mus musculus [2],87.97%
same,Activity,Mus musculus [3],97.93%
O=c1oc2ccc(Br)cc2cc1-c1cc(-c2cccc(Br)c2)nc(NCN2CCCCC2)n1,Activity,Mus musculus [1],39.16%
same,Activity,Mus musculus [2],37.7%
same,Activity,Mus musculus [3],41.97%
O=c1oc2ccc(Br)cc2cc1-c1cc(-c2ccccc2Cl)nc(NCN2CCCCC2)n1,Activity,Mus musculus [1],52.06%
same,Activity,Mus musculus [2],84.83%
same,Activity,Mus musculus [3],89.64%
O=c1oc2ccc(Br)cc2cc1-c1cc(-c2c(Cl)cccc2Cl)nc(NCN2CCOCC2)n1,Activity,Mus musculus [1],75.26%
same,Activity,Mus musculus [2],87.96%
same,Activity,Mus musculus [3],95.34%

# From ChEMBL document CHEMBL3046399, “Microwave assisted synthesis of novel pyrimidine derivatives and investigation of their analgesic and ulcerogenic activity” (Med Chem Res, 2012)
